# Source: patent US20110086759A1, “CHEMICAL COMPOUNDS” (SYNGENTA CROP PROTECTION, INC., priority 2007, published 2011)
# Assays:
# Assay type in all cases: in vivo
# Solanum nigrum (SOLNI) [1] = test: Post-emergence biological efficacy, glasshouse pot test; details: 312 h, Rate 1,000 g/ha, post-emergence spray, evaluated after 13 days (100=total damage to plant; 0=no damage to plant), read-out: Percentage damage caused to weed species, post-emergence, SOLNI
# Method in brief: (§1)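 Plants were sown in standard soil and grown 8 days in a glasshouse (24/16° C. day/night, 14 hours light, 65% humidity), then sprayed post-emergence at 1000 or 250 g/ha from acetone/water (50:50) with 0.5% Tween 20. Damage was scored visually after 13 days (0 = none, 100 = total).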
# [2] = test system: Ipomea hederaceae (IPOHE); test: as above; details: Ipomoea hederacea, 312 h; Rate 1,000 g/ha; post-emergence spray; evaluated after 13 days (100=total damage to plant; 0=no damage to plant); read-out: Percentage damage caused to weed species, post-emergence, IPOHE
# Method in brief: as §1
# Setaria faberi (SETFA) [3] = test: as above; details: 312 h, Rate 1,000 g/ha, post-emergence spray, evaluated after 13 days (100=total damage to plant; 0=no damage to plant), read-out: Percentage damage caused to weed species, post-emergence, SETFA
# Method in brief: as §1
# [4] = test system: Amaranthus retoflexus (AMARE); test: as above; details: Amaranthus retroflexus, 312 h; Rate 1,000 g/ha; post-emergence spray; evaluated after 13 days (100=total damage to plant; 0=no damage to plant); read-out: Percentage damage caused to weed species, post-emergence, AMARE
# Method in brief: as §1
# [5] = test system: Echinochloa crus-galli (ECHCG); test: as above; details: 312 h, Rate 1,000 g/ha, post-emergence spray, evaluated after 13 days (100=total damage to plant; 0=no damage to plant), read-out: Percentage damage caused to weed species, post-emergence, ECHCG
# Method in brief: as §1
# [6] = test system: Alopecurus myosuroides (ALOMY); test: as above; details: 312 h, Rate 1,000 g/ha, post-emergence spray, evaluated after 13 days (100=total damage to plant; 0=no damage to plant), read-out: Percentage damage caused to weed species, post-emergence, ALOMY
# Method in brief: as §1
# Solanum nigrum (SOLNI) [7] = test: Pre-emergence biological efficacy, glasshouse pot test; details: 312 h, pre-emergence, rate 1,000 g/ha, evaluated after 13 days (100=total damage to plant; 0=no damage), read-out: Percentage damage caused to weed species, SOLNI
# Method in brief: (§2)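 Seeds sown in standard soil in pots, held one day in glasshouse (24/16 °C day/night, 14 h light, 65% humidity), then sprayed with aqueous solution from acetone/water (50:50) formulation with 0.5% Tween 20 at 1000 or 250 g/ha. Damage scored after 13 days (0 = none, 100 = total).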
# [8] = test system: Ipomea hederaceae (IPOHE); test: as above; details: Ipomoea hederacea, 312 h; pre-emergence, rate 1,000 g/ha, evaluated after 13 days (100=total damage to plant; 0=no damage); read-out: Percentage damage caused to weed species, IPOHE
# Method in brief: as §2
# Setaria faberi (SETFA) [9] = test: as above; details: 312 h, pre-emergence, rate 1,000 g/ha, evaluated after 13 days (100=total damage to plant; 0=no damage), read-out: Percentage damage caused to weed species, SETFA
# Method in brief: as §2
# [10] = test system: Amaranthus retoflexus (AMARE); test: as above; details: Amaranthus retroflexus, 312 h; pre-emergence, rate 1,000 g/ha, evaluated after 13 days (100=total damage to plant; 0=no damage); read-out: Percentage damage caused to weed species, AMARE
# Method in brief: as §2
# [11] = test system: Echinochloa crus-galli (ECHCG); test: as above; details: 312 h, pre-emergence, rate 1,000 g/ha, evaluated after 13 days (100=total damage to plant; 0=no damage), read-out: Percentage damage caused to weed species, ECHCG
# Method in brief: as §2
# [12] = test system: Alopecurus myosuroides (ALOMY); test: as above; details: 312 h, pre-emergence, rate 1,000 g/ha, evaluated after 13 days (100=total damage to plant; 0=no damage), read-out: Percentage damage caused to weed species, ALOMY
# Method in brief: as §2
Structure (SMILES),pest or weed control at 1000 g/ha (Solanum nigrum (SOLNI) [1]) [%],pest or weed control at 1000 g/ha [2] [%],pest or weed control at 1000 g/ha (Setaria faberi (SETFA) [3]) [%],pest or weed control at 1000 g/ha [4] [%],pest or weed control at 1000 g/ha [5] [%],pest or weed control at 1000 g/ha [6] [%],pest or weed control at 1000 g/ha (Solanum nigrum (SOLNI) [7]) [%],pest or weed control at 1000 g/ha [8] [%],pest or weed control at 1000 g/ha (Setaria faberi (SETFA) [9]) [%],pest or weed control at 1000 g/ha [10] [%],pest or weed control at 1000 g/ha [11] [%],pest or weed control at 1000 g/ha [12] [%]
"COC(=O)c1nc(C2CC2)nc(N(C)Cc2ccccc2F)c1Cl [Compound 5-64, 5-Chloro-2-cyclo-propyl-4-[N-(2-fluorophenylmethyl)-N-methyl]-6-methoxy-carbonylpyrimidine]",90,100,90,100,80,20,70,80,10,70,20,10
"COC(=O)c1nc(C2CC2)nc(N(C)Cc2cccc(F)c2)c1Cl [Compound 5-65, 5-Chloro-2-cyclopropyl-4-[N-(3-fluorophenylmethyl)-N-methyl-amino]-6-methoxy-carbonylpyrimidine]",100,90,80,100,70,30,90,100,20,100,10,20
"COC(=O)c1nc(C2CC2)nc(N(C)Cc2ccc(F)cc2)c1Cl [Compound 5-66, 5-Chloro-2-cyclopropyl-4-[N-(4-fluorophenylmethyl)-N-methyl-amino]-6-methoxy-carbonylpyrimidine]",90,100,80,100,40,20,60,70,60,100,40,30
"COC(=O)c1nc(C2CC2)nc(N(C)Cc2ccc(Br)cc2)c1Cl [Compound 5-69, 4-[N-(4-Bromo-phenylmethyl)-N-methyl-amino]-5-chloro-2-cyclo-propyl-6-methoxy-carbonylpyrimidine]",80,80,70,100,50,30,20,50,0,70,10,10
"COC(=O)c1nc(C2CC2)nc(N(C)Cc2ccc(C)cc2)c1Cl [Compound 5-73, 5-Chloro-2-cyclopropyl-6-methoxycarbonyl-4-[N-methyl-N-(4-methylphenyl)-methylamino]-pyrimidine]",70,100,50,100,10,10,20,30,0,80,0,0
"COC(=O)c1nc(C2CC2)nc(N(C)Cc2cccc(C(F)(F)F)c2)c1Cl [Compound 5-76, 5-Chloro-2-cyclopropyl-6-methoxycarbonyl-4-[N-methyl-N-(3-trifluoromethyl-phenylmethyl)-amino]pyrimidine]",90,90,80,100,50,40,40,60,30,80,20,10
"COC(=O)c1nc(C2CC2)nc(N(C)Cc2ccc(C(F)(F)F)cc2)c1Cl [Compound 5-77, 5-Chloro-2-cyclopropyl-6-methoxycarbonyl-4-[N-methyl-N-(4-trifluoromethyl-phenyl)methyl-amino]pyrimidine]",100,100,50,100,40,20,20,20,0,90,0,0
"COC(=O)c1nc(C2CC2)nc(N(C)Cc2cccc(OC)c2)c1Cl [Compound 5-79, 5-Chloro-2-cyclopropyl-6-methoxycarbonyl-4-[N-(3-methoxy-phenylmethyl)-N-methyl-amino]-pyrimidine]",80,70,30,100,0,0,40,50,0,70,0,0
"COC(=O)c1nc(C2CC2)nc(N(C)Cc2ccc(OC)cc2)c1Cl [Compound 5-80, 5-Chloro-2-cyclopropyl-6-methoxycarbonyl-4-[N-(4-methoxy-phenyl)methyl-N-methyl-amino]-pyrimidine]",100,100,80,100,50,20,30,60,20,100,0,0
"COC(=O)c1nc(C2CC2)nc(N(C)Cc2ccc(N)cc2)c1Cl [Compound 5-86, 4-[N-(4-aminophenylmethyl)-N-methyl-amino]-5-chloro-2-cyclopropyl-6-methoxycarbonyl-pyrimidine]",90,100,90,100,70,40,100,100,30,100,50,40
